From article PMC7589057, “Synthesis of Hantzsch Adducts as Cholinesterases and Calcium Flux inhibitors, Antioxidants and Neuroprotectives” (International Journal of Molecular Sciences, 2020)
Where “and” joins values, the source holds several entries; their conditions need not be identical. Identical values can stand only once.

Legend:
[1] = Oxygen radical absorbance capacity assay (ORAC-FL); settings: Trolox equivalents, mean (n = 3) ± SEM
Protocol: Briefly, fluorescein and antioxidant were incubated in a black 96-well microplate (Nunc) for 15 min at 37 °C. 2,2′-Azobis(amidinopropane) dihydrochloride was then added quickly using the built-in injector of Varioskan Flash plate reader (Thermo Scientific). […] All the reactions were made in triplicate and at least three different assays were performed for each sample [9, 30].

EeAChE = EeAChE (Electrophorus electricus, UniProt O42275); experiment: biochemical; assay type: biochemical; settings: for inhibition at 10 µM: read-out: AChE % inhibition at 10 μM (no IC50 given)
EeAChE, sequence (O42275 24-633): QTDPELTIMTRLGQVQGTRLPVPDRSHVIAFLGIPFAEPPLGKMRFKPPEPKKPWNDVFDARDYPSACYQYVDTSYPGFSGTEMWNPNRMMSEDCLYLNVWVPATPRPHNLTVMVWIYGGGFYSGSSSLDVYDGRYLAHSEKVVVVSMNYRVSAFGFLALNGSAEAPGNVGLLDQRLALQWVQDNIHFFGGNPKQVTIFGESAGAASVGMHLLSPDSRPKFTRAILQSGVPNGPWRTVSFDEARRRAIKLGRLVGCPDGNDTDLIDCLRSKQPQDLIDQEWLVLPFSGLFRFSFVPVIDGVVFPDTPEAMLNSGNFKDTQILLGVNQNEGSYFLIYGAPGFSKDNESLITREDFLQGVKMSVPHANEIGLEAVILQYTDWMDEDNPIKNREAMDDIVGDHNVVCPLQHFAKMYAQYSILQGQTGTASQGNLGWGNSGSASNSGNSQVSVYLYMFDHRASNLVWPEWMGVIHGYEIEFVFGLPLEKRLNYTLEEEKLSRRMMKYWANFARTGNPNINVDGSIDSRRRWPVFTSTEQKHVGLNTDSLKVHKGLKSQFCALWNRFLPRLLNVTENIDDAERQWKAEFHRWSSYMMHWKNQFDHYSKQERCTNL
Protocol: (§1) The evaluation of the activity of compounds against both EeAChE and eqBuChE was evaluated following the Ellman spectrophotometric method. Briefly, the reaction happens in a final volume of 3 mL of a 0.1 M phosphate-buffered solution at pH = 8.0, containing 5,5′-dithiobis-2-nitrobenzoic acid, EeAChE or eqBuChE, tested compound and bovine albumin serum phosphate-buffered (pH = 8) solution After this pre-incubation period, acetylthiocholine iodide or butyrylthiocholine iodide was added, allowing 15 min of additional incubation time.

eqBuChE = eqBuChE (Equus caballus, UniProt P81908); experiment: biochemical; settings: for inhibition at 10 µM: read-out: BuChE % inhibition at 10 μM (no IC50 given), 10 μM; for IC50: mean ± SEM, read-out: BuChE IC50
eqBuChE, sequence (P81908 whole entry): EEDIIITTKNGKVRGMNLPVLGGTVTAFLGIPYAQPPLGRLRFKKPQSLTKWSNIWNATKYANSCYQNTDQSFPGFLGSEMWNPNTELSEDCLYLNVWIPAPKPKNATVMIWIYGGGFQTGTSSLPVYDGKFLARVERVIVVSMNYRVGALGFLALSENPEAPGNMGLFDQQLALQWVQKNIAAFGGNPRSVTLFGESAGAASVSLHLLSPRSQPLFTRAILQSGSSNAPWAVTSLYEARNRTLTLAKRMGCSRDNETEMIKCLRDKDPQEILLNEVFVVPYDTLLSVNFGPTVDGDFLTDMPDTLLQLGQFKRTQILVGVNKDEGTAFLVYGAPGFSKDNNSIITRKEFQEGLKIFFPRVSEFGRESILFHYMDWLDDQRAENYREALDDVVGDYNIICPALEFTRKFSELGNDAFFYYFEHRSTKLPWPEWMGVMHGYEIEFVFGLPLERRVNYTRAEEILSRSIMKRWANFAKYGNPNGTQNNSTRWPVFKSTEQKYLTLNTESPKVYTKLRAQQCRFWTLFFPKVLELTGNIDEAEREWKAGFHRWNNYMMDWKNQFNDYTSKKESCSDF
Protocol: as §1

Ca^+2 channel = experiment: Calcium channel blockade (FLIPR Calcium 6, KCl/CaCl2-stimulated SH-SY5Y cells); assay type: cell-based; settings: 10 μM; SH-SY5Y cells stimulated with KCl/CaCl2
Protocol: The calcium channel blockade assay was performed as described earlier. Briefly, the SH-SY5Y cells were seeded out in 96-well dark-walled plates at a density of 1 × 10^5 cells per well. After 24 h, the cells were loaded with FLIPR Calcium 6 indicator (Molecular Devices) for 2 h at 37 °C, according to the manufacturer’s protocol. Compounds were dissolved in an appropriate amount of DMSO at 10 mM concentration and diluted to a final concentration of 10 μM in Hanks′ Balanced Salt Solution (HBSS, Thermo Fisher Scientific) buffered with HEPES (Sigma-Aldrich) at pH = 7.4, and as such used were for treatment of indicator loaded cells (10 min at 37 °C). […] The baseline fluorescence was recorded for 5 s. Then, the cells were stimulated with KCl/CaCl2 solution (in HBSS, final concentration of KCl and CaCl2 was 90 and 5 mM, respectively) and the fluorescence was recorded for a further 30 s. Dimethyl sulfoxide 1% solution in HBSS was used as a vehicle control. Nimodipine (Cayman Chemical Company) was used as a reference inhibitor at 10 μM and compounds were assessed at the same final concentration in triplicate in three independent experiments. Fluorescent intensity values were normalized to the baseline.

SH-SY5Y cells [2] = experiment: Neuroprotection against H2O2-induced cell death in SH-SY5Y cells (MTS); assay type: cell-based; settings: for H2O2 (%) neuroprotection: H2O2 200 µM
Protocol: (§2) The most balanced compounds were then submitted to evaluation of their neuroprotection activity. For this purpose, cytotoxicity was induced by H2O2, a well-known toxic responsible for the generation of ROS and by mitochondrial respiratory chain blockers oligomycin rotenone (O/R). Prior to the neuroprotective assay, the effect of the compounds on cell viability was evaluated at 1 and 10 µM, showing no cytotoxicity against SH-SY5Y cells.
(§3) SH-SY5Y cells were seeded in 96-well culture plates at a density of 12 × 10^4 cells per well in DMEM/F12 (1:1) medium supplemented with 10% fetal bovine serum, 1X non-essential amino acids, 100 units/mL penicillin and […] streptomycin (Dutscher, France). After 48 h of incubation, the cultures were treated with 100 µl of the test compounds or DMSO (0.1%) in the same medium. After 24 h, the cells were co-incubated with H2O2 (200 µM) or O/R (O at 10 µM/R at 30 µM) with or without the tested compounds at noncytotoxic concentrations for an additional period of 24 h. The percentage of cell viability was measured using CellTiter 96 AQueous Non-Radioactive Cell Proliferation (MTS) Assay (Promega, France).

SH-SY5Y cells [3] = experiment: Neuroprotection against oligomycin A/rotenone (O/R)-induced cell death in SH-SY5Y cells (MTS); assay type: cell-based; settings: for O/R (%) neuroprotection: O at 10 µM/R at 30 µM
Protocol: as §2, §3

## CCOC(=O)C1=C(C)NC(C)=C(C(=O)OCC)C1c1ccc(OCCCCCN2CCOCC2)cc1 [3a, Diethyl-2,6-dimethyl-4-(4-((5-morpholinopentyl)oxy)phenyl)-1,4-dihydropyridine-3,5-dicarboxylate]
[1]
  ORAC: 1.31 ± 0.01 TE
EeAChE; EeAChE
  inhibition at 10 µM: < 50%
eqBuChE
  inhibition at 10 µM: < 50%
Ca^+2 channel
  (%) Ca Flux Inhibition: 18.58%

## COC(=O)C1=C(C)NC(C)=C(C(=O)OC)C1c1ccc(OCCCCCN2CCOCC2)cc1 [3b, Dimethyl-2,6-dimethyl-4-(4-((5-morpholinopentyl)oxy)phenyl)-1,4-dihydropyridine-3,5-dicarboxylate]
[1]
  ORAC: 2.59 TE and 2.59 ± 0.04 TE
EeAChE; EeAChE
  inhibition at 10 µM: < 50%
eqBuChE
  inhibition at 10 µM: < 50%
Ca^+2 channel
  (%) Ca Flux Inhibition: 31.89%

## CCOC(=O)C1=C(C)NC(C)=C(C(=O)OCC)C1c1ccc(OCCCCCN(CC)CC)cc1 [3c, Diethyl-4-(4-((5-(diethylamino)pentyl)oxy)phenyl)-2,6-dimethyl-1,4-dihydropyridine-3,5-dicarboxylate]
SH-SY5Y cells [2]
  neuroprotective effect against H2O2 (in words): modest
SH-SY5Y cells [2]; 0.3 µM
  H2O2 (%) neuroprotection: 12.37 ± 0.08%
SH-SY5Y cells [2]; 1 µM
  H2O2 (%) neuroprotection: 24.17 ± 0.12%
[1]
  ORAC: 2.64 TE and 2.64 ± 0.04 TE
EeAChE; EeAChE
  inhibition at 10 µM: < 50%
eqBuChE
  IC50: 4.6 ± 0.1 µM
Ca^+2 channel
  (%) Ca Flux Inhibition: 58.21%
SH-SY5Y cells [3]
  neuroprotective effect against O/R (in words): modest
SH-SY5Y cells [3]; 0.3 µM
  O/R (%) neuroprotection: 22.27 ± 0.09%
SH-SY5Y cells [3]; 1 µM
  O/R (%) neuroprotection: 25.87 ± 0.04%

## CCN(CC)CCCCCOc1ccc(C2C(C(=O)OC)=C(C)NC(C)=C2C(=O)OC)cc1 [3d, Dimethyl-4-(4-((5-(diethylamino)pentyl)oxy)phenyl)-2,6-dimethyl-1,4-dihydropyridine-3,5-dicarboxylate]
[1]
  ORAC: 1.93 ± 0.68 TE
EeAChE; EeAChE
  inhibition at 10 µM: < 50%
eqBuChE
  inhibition at 10 µM: < 50%
Ca^+2 channel
  (%) Ca Flux Inhibition: 39.55%

## CCOC(=O)C1=C(C)NC(C)=C(C(=O)OCC)C1c1ccc(OCCCCCN2CCN(C)CC2)cc1 [3e, Diethyl-2,6-dimethyl-4-(4-((5-(4-methylpiperazin-1-yl)pentyl)oxy)phenyl)-1,4-dihydropyridine-3,5-dicarboxylate]
[1]
  ORAC: 1.78 ± 0.00 TE
EeAChE; EeAChE
  inhibition at 10 µM: < 50%
eqBuChE
  inhibition at 10 µM: < 50%
Ca^+2 channel
  (%) Ca Flux Inhibition: 40.51%

## COC(=O)C1=C(C)NC(C)=C(C(=O)OC)C1c1ccc(OCCCCCN2CCN(C)CC2)cc1 [3f, Dimethyl-2,6-dimethyl-4-(4-((5-(4-methylpiperazin-1-yl)pentyl)oxy)phenyl)-1,4-dihydropyridine-3,5-dicarboxylate]
[1]
  ORAC: 1.38 ± 0.02 TE
EeAChE; EeAChE
  inhibition at 10 µM: < 50%
eqBuChE
  inhibition at 10 µM: < 50%
Ca^+2 channel
  (%) Ca Flux Inhibition: 38.4%

## CCOC(=O)C1=C(C)NC(C)=C(C(=O)OCC)C1c1ccc(OCCCCCN2CCC(Cc3ccccc3)CC2)cc1 [3g, Diethyl-4-(4-((5-(4-benzylpiperidin-1-yl)pentyl)oxy)phenyl)-2,6-dimethyl-1,4-dihydropyridine-3,5-dicarboxylate]
[1]
  ORAC: 2.24 ± 0.04 TE
EeAChE; EeAChE
  inhibition at 10 µM: < 50%
eqBuChE
  inhibition at 10 µM: < 50%
Ca^+2 channel
  (%) Ca Flux Inhibition: 53.6%

## COC(=O)C1=C(C)NC(C)=C(C(=O)OC)C1c1ccc(OCCCCCN2CCC(Cc3ccccc3)CC2)cc1 [3h, Dimethyl-4-(4-((5-(4-benzylpiperidin-1-yl)pentyl)oxy)phenyl)-2,6-dimethyl-1,4-dihydropyridine-3,5-dicarboxylate]
SH-SY5Y cells [2]; 0.3 µM
  H2O2 (%) neuroprotection: 28% and 28.68% and 28.68 ± 0.02 %
SH-SY5Y cells [2]; 1 µM
  H2O2 (%) neuroprotection: 23.32 ± 0.02 %
[1]
  ORAC: 2.54 TE and 2.54 ± 0.04 TE
EeAChE; AChE IC50 vs tacrine
  fold less active than tacrine (AChE IC50): 60 fold
EeAChE; EeAChE, mean ± SEM, read-out: AChE IC50
  IC50: 1.8 ± 0.1 µM
eqBuChE
  IC50: 2 ± 0.1 µM
Ca^+2 channel
  (%) Ca Flux Inhibition: 47.72%
SH-SY5Y cells [3]; 0.3 µM
  O/R (%) neuroprotection: 38.29% and 38.29 ± 0.04 %
SH-SY5Y cells [3]; 1 µM
  O/R (%) neuroprotection: 33.90% and 33.90 ± 0.05 %

## CCOC(=O)C1=C(C)NC(C)=C(C(=O)OCC)C1c1ccc(OCCCCCCN2CCOCC2)cc1 [3i, 3,5-Ethyl-2,6-dimethyl-4-(4-{[6-(morpholin-4-yl)hexyl]oxy}phenyl)-1,4-dihydropyridine-3,5-dicarboxylate]
[1]
  ORAC: 1.22 ± 0.02 TE
EeAChE; EeAChE
  inhibition at 10 µM: < 50%
eqBuChE
  inhibition at 10 µM: < 50%
Ca^+2 channel
  (%) Ca Flux Inhibition: 47.55%

## COC(=O)C1=C(C)NC(C)=C(C(=O)OC)C1c1ccc(OCCCCCCN2CCOCC2)cc1 [3j, 3,5-Dimethyl-2,6-dimethyl-4-(4-{[6-(morpholin-4-yl)hexyl]oxy}phenyl)-1,4-dihydropyridine-3,5-dicarboxylate]
[1]
  ORAC: 0.99 ± 0.09 TE
EeAChE; EeAChE
  inhibition at 10 µM: < 50%
eqBuChE
  inhibition at 10 µM: < 50%
Ca^+2 channel
  (%) Ca Flux Inhibition: 52.57%

## CCOC(=O)C1=C(C)NC(C)=C(C(=O)OCC)C1c1ccc(OCCCCCCN(CC)CC)cc1 [3k, 3,5-Diethyl-4-(4-{[6-(diethylamino)hexyl]oxy}phenyl)–2,6–dimethyl-1,4–dihydropyridine-3,5-dicarboxylate]
[1]
  ORAC: 1.21 ± 0.12 TE
EeAChE; EeAChE
  inhibition at 10 µM: < 50%
eqBuChE
  IC50: 9.6 ± 0.3 µM
Ca^+2 channel
  (%) Ca Flux Inhibition: 31.66%

## CCN(CC)CCCCCCOc1ccc(C2C(C(=O)OC)=C(C)NC(C)=C2C(=O)OC)cc1 [3l, 3,5-Dimethyl-4-(4-{[6-(diethylamino)hexyl]oxy}phenyl)-2,6–dimethyl-1,4–dihydropyridine-3,5-dicarboxylate]
[1]
  ORAC: 0.91 TE and 0.91 ± 0.01 TE
EeAChE; EeAChE
  inhibition at 10 µM: < 50%
eqBuChE
  IC50: 8.7 ± 0.1 µM
Ca^+2 channel
  (%) Ca Flux Inhibition: 39.74%

## CCOC(=O)C1=C(C)NC(C)=C(C(=O)OCC)C1c1ccc(OCCCCCCN2CCN(C)CC2)cc1 [3m, 3,5-Diethyl-2,6-dimethyl-4-(4-{[6-(4-methylpiperazin-1-yl)hexyl]oxy}phenyl)-1,4-dihydro-pyridine-3,5-dicarboxylate]
SH-SY5Y cells [2]
  neuroprotective effect against H2O2 (in words): modest
SH-SY5Y cells [2]; 0.3 µM
  H2O2 (%) neuroprotection: 9.55 ± 0.00%
SH-SY5Y cells [2]; 1 µM
  H2O2 (%) neuroprotection: 4.63 ± 0.02%
[1]
  ORAC: 1.10 ± 0.08 TE
[1]; listed as 2m
  ORAC: 1.10 TE
EeAChE; EeAChE
  inhibition at 10 µM: < 50%
eqBuChE
  IC50: 5.5 ± 0.1 µM
Ca^+2 channel
  (%) Ca Flux Inhibition: 50.6%
SH-SY5Y cells [3]
  neuroprotective effect against O/R (in words): modest
SH-SY5Y cells [3]; 0.3 µM
  O/R (%) neuroprotection: 8.95 ± 0.00%
SH-SY5Y cells [3]; 1 µM
  O/R (%) neuroprotection: 16.65 ± 0.00%

## COC(=O)C1=C(C)NC(C)=C(C(=O)OC)C1c1ccc(OCCCCCCN2CCN(C)CC2)cc1 [3n, 3,5-Dimethyl-2,6-dimethyl-4-(4-{[6-(4-methylpiperazin-1-yl)hexyl]oxy}phenyl)-1,4-dihydro-pyridine-3,5-dicarboxylate]
[1]
  ORAC: 1.39 ± 0.12 TE
EeAChE; EeAChE
  inhibition at 10 µM: < 50%
eqBuChE
  inhibition at 10 µM: < 50%
Ca^+2 channel
  (%) Ca Flux Inhibition: 28.9%

## CCOC(=O)C1=C(C)NC(C)=C(C(=O)OCC)C1c1ccc(OCCCCCCN2CCC(Cc3ccccc3)CC2)cc1 [3o]
[1]
  ORAC: 1.36 ± 0.01 TE
EeAChE; EeAChE
  inhibition at 10 µM: < 50%
eqBuChE
  inhibition at 10 µM: < 50%
Ca^+2 channel
  (%) Ca Flux Inhibition: 80.19%

## COC(=O)C1=C(C)NC(C)=C(C(=O)OC)C1c1ccc(OCCCCCCN2CCC(Cc3ccccc3)CC2)cc1 [3p, 3,5-Dimethyl-4-(4-{[6-(4-benzylpiperidin-1-yl)hexyl]oxy}phenyl)-2,6-dimethyl-1,4-dihydro-pyridine-3,5-dicarboxylate]
[1]
  ORAC: 2.28 ± 0.01 TE
EeAChE; EeAChE
  inhibition at 10 µM: < 50%
eqBuChE
  inhibition at 10 µM: < 50%
Ca^+2 channel
  (%) Ca Flux Inhibition: 78.13%

## COCCOC(=O)C1=C(C)NC(C)=C(C(=O)OC(C)C)C1c1cccc([N+](=O)[O-])c1 (centres unmarked) [NIM, nimodipine, reference compound]
Ca^+2 channel
  (%) Ca Flux Inhibition: 47.91%
